Patent publication US20260183274A1, “PDK1 REGULATORY COMPOUND AND COMPOSITION CONTAINING THE SAME” (PROVIBIO CO., LTD., priority 2024, published 2026)

Tests used:
[1] = tested on: T cells isolated from mouse spleens; assay: T cell proliferation inhibition (CFSE flow cytometry, anti-CD3/anti-CD28 stimulation); type: cell-based; conditions: mouse spleen T cells, 3 days; for inhibition at 0.01 µM / inhibition at 0.1 µM / inhibition at 1 µM / inhibition at 10 µM / inhibition at 30 µM / inhibition at 50 µM: Mus musculus, T-cell, 72 h, read-out: Proliferation inhibition rate (%)
Method in brief: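 Proliferation inhibition (%) came from flow cytometry of CFSE dilution after 3 days' culture at 37 °C with compound (10 nM, 100 nM, 1, 10, 30, 50 μM; triplicate wells). Cells were magnetically purified T cells from C57BL/6 mouse spleens, 2×10^5 per well, stimulated with 0.5 μg/mL each anti-CD3 and anti-CD28.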

[2] = tested on: Human B Lymphocyte cell line, SU-DHL-8; assay: Relative cell viability CCK-8, SU-DHL-8; type: cell-based; conditions: for viability at 1 µM / viability at 10 µM / viability at 30 µM / viability at 50 µM: Homo sapiens, SU-DHL-8, 48 h; for viability at 1 µM: read-out: Relative cell viability (%), SU-DHL-8, 1 μM; for viability at 10 µM: read-out: Relative cell viability (%), SU-DHL-8, 10 μM; for viability at 30 µM: read-out: Relative cell viability (%), SU-DHL-8, 30 μM; for viability at 50 µM: read-out: Relative cell viability (%), SU-DHL-8, 50 μM
Protocol: Human-derived B lymphoma cell line SU-DHL-8 (Cat. #CRL-2961) purchased from ATCC was cultured in RPMI-1640 medium containing 10% FBS, 100 U/mL penicillin, and 100 μg/mL streptomycin.
The cell culture medium was then harvested, centrifuged at 1,300 rpm for 5 minutes, and the supernatant was removed. The cells were resuspended in the same medium and dispensed into a 96-well plate (Costar 96-well cell culture plate, Corning) at 90 μL per well, resulting in the conditions specified in Table 5.
Then, 10 μL of CCK-8 was added to each well, and the plates were incubated again at 37° C. in a 5% CO2 incubator for 4 hours.
In other words, when the survival rate of untreated cells (DMSO) is set at 100%, the relative cell survival rate in each group treated with the drug at different concentrations is indicated.

[3] = 48 hours, untreated (DMSO) = 100%
[4] = 1 μM, 48 hours, untreated (DMSO) = 100%
[5] = 10 μM, 48 hours, untreated (DMSO) = 100%
[6] = 30 μM, 48 hours, untreated (DMSO) = 100%
[7] = 50 μM, 48 hours, untreated (DMSO) = 100%

| Structure (SMILES) | inhibition at 0.01 µM ([1]; compound 10 nM) [%] | inhibition at 0.1 µM ([1]; compound 100 nM) [%] | inhibition at 1 µM ([1]; compound 1 μM) [%] | inhibition at 10 µM ([1]; compound 10 μM) [%] | inhibition at 30 µM ([1]; compound 30 μM) [%] | inhibition at 50 µM ([1]; compound 50 μM) [%] | viability at 1 µM [2, 3] [%] | viability at 10 µM [2, 3] [%] | viability at 30 µM [2, 3] [%] | viability at 50 µM [2, 3] [%] | also measured |
| --- | --- | --- | --- | --- | --- | --- | --- | --- | --- | --- | --- |
| Nc1ccncc1C(=O)NCCCCCCCCCCCCF [Compound 73, 4-Amino-N-(12-fluoro-dodecyl)-nicotinamide] | -6.44 | 5.75 | 7.4 | 84.8 | 100 | 100 | 11.9 | 5.03 | 0.98 | 0.91 | – |
| Nc1ncccc1C(=O)NCCCCCCCCCCCCN1CCCCC1 [Compound 18, 2-amino-N-(12-(piperidin-1-yl)dodecyl)nicotinamide] | 1.87 | 76.1 | 100 | 100 | 100 | 100 | 5.28 | 4.5 | 4.09 | 3.44 | – |
| CC1CN(C)C(CCCCCCCCCCCCNc2ccc3cncnc3n2)N1 (centres unmarked) [Compound 43] | – | – | – | – | – | – | – | – | – | – | Proliferation inhibition rate (%) ([1]; compound 10 nM): −10.80%; Proliferation inhibition rate (%) ([1]; compound 100 nM): 100.00%; Proliferation inhibition rate (%) ([1]; compound 1 μM): 100.00%; Proliferation inhibition rate (%) ([1]; compound 10 μM): 100.00%; Proliferation inhibition rate (%) ([1]; compound 30 μM): 100.00%; Proliferation inhibition rate (%) ([1]; compound 50 μM): 100.00%; Relative cell viability (%), SU-DHL-8 [2, 4]: 22.61%; Relative cell viability (%), SU-DHL-8 [2, 5]: 11.93%; Relative cell viability (%), SU-DHL-8 [2, 6]: 2.34%; Relative cell viability (%), SU-DHL-8 [2, 7]: 1.58% |
| Nc1nc(NC(=O)CCCCCCCCCCCCN2CCC(O)CC2)nc2nc[nH]c12 [Compound 9, 12-(4-hydroxypiperidin-1-yl)dodecyl-N-(6-aminopurine-2-yl) carboxamide] | – | – | 100 | 100 | 100 | 100 | 5.32 | 4.19 | 3.36 | 3.14 | Proliferation inhibition rate (%) ([1]; compound 10 nM, listed as GO83, 0.01 µM): 38.33% |
| COc1ccc(CN2CCN(CCCCCCCCCCCCNC(=O)c3cccnc3N)CC2)cc1 [Compound 28, 2-Amino-N-(12-(4-(4-methoxybenzyl)piperazin-1-yl)dodecyl)nicotinamide] | -0.27 | 100 | 100 | 100 | 100 | 100 | 5.46 | 2.82 | 0.33 | – | Relative cell viability (%), SU-DHL-8 ([2]; human, 48 h, 50 µM): −1.55% |
| O=C(NCCCCCCCCCCCCF)c1ncccc1O [Compound 64, 3-Hydroxy-pyridine-2-carboxylic acid (12-fluoro-dodecyl)-amide] | -4.11 | 8.63 | 6.99 | 8.94 | 80.4 | 97 | 23.3 | 14.1 | 6.51 | 6.33 | – |
| CN1CCN(CCCCCCCCCCCCNC(=O)c2ccc3[nH]cnc3c2)CC1 [Compound 91, N-(12-(4-methylpiperazin-1-yl)dodecyl)-1H-benzo[d]imidazole-5-carboxamide] | -14.6 | 100 | 100 | 100 | 100 | 100 | 3.93 | 3.12 | 1.84 | 1.59 | – |
| CC1C2CCCN2CCN1CCCCCCCCCCCCNC(=O)c1cccnc1N (centres unmarked) [Compound 29, 2-Amino-N-(12-(1-methylhexahydropyrrolo[1,2-a]pyrazin-2 (1H)-yl)dodecyl)nicotinamide] | 4.15 | 100 | 100 | 100 | 100 | 100 | 3.85 | 1.86 | 1.25 | 1.03 | – |
| Nc1ncccc1C(=O)NCCCCCCCCCCCCN1CC(F)(F)C1 [Compound 122, 2-Amino-N-(12-(3,3-difluoroazetidin-1-yl)dodecyl) nicotinamide] | – | – | – | – | – | – | – | – | – | – | Proliferation inhibition rate (%) ([1]; compound 10 nM): 0.00%; Proliferation inhibition rate (%) ([1]; compound 100 nM): 0.00%; Proliferation inhibition rate (%) ([1]; compound 1 μM): 80.00%; Proliferation inhibition rate (%) ([1]; compound 10 μM): 100.00%; Proliferation inhibition rate (%) ([1]; compound 30 μM): 100.00%; Proliferation inhibition rate (%) ([1]; compound 50 μM): 100.00%; Relative cell viability (%), SU-DHL-8 [2, 4]: 31.84%; Relative cell viability (%), SU-DHL-8 [2, 5]: 31.91%; Relative cell viability (%), SU-DHL-8 [2, 6]: 32.93%; Relative cell viability (%), SU-DHL-8 [2, 7]: 35.70% |
| C[C@H]1CNCCN1CCCCCCCCCCCCNC(=O)c1cccnc1N.Cl [Compound 37, (S)-2-Amino-N-(12-(2-methylpiperazin-1-yl)dodecyl) nicotinamide hydrochloride] | – | – | – | – | – | – | – | – | – | – | Proliferation inhibition rate (%) ([1]; compound 10 nM): −4.14%; Proliferation inhibition rate (%) ([1]; compound 100 nM): 33.33%; Proliferation inhibition rate (%) ([1]; compound 1 μM): 100.00%; Proliferation inhibition rate (%) ([1]; compound 10 μM): 100.00%; Proliferation inhibition rate (%) ([1]; compound 30 μM): 100.00%; Proliferation inhibition rate (%) ([1]; compound 50 μM): 100.00%; Relative cell viability (%), SU-DHL-8 [2, 4]: 6.38%; Relative cell viability (%), SU-DHL-8 [2, 5]: 4.45%; Relative cell viability (%), SU-DHL-8 [2, 6]: 3.17%; Relative cell viability (%), SU-DHL-8 [2, 7]: 2.32% |
| Cl.Nc1ncccc1C(=O)NCCCCCCCCCCCCF [Compound 69, 3-(12-fluoro-dodecylcarbamoyl)-pyridin-2-yl-ammonium chloride] | – | – | – | – | – | – | – | – | – | – | Proliferation inhibition rate (%) ([1]; compound 10 nM): −4.04%; Proliferation inhibition rate (%) ([1]; compound 100 nM): −4.66%; Proliferation inhibition rate (%) ([1]; compound 1 μM): 7.14%; Proliferation inhibition rate (%) ([1]; compound 10 μM): 65.36%; Proliferation inhibition rate (%) ([1]; compound 30 μM): 89.94%; Proliferation inhibition rate (%) ([1]; compound 50 μM): 99.20%; Relative cell viability (%), SU-DHL-8 [2, 4]: 27.80%; Relative cell viability (%), SU-DHL-8 [2, 5]: 15.16%; Relative cell viability (%), SU-DHL-8 [2, 6]: 1.05%; Relative cell viability (%), SU-DHL-8 [2, 7]: 0.77% |
| Nc1ncccc1C(=O)NCCCCCCCCCCCCN1CCN(Cc2ccc(F)cc2)CC1 [Compound 27, 2-Amino-N-(12-(4-(4-fluorobenzyl)piperazin-1-yl)dodecyl)nicotinamide] | 2.27 | 83.3 | 100 | 100 | 100 | 100 | 6.24 | 4.97 | 2.03 | 0.56 | – |
| Nc1ncccc1C(=O)NCCCCCCCCCCCCn1nnc2cccnc21 [Compound 88, N-(12-(3H-[1,2,3]triazolo[4,5-b]pyridin-3-yl)dodecyl)-2-aminonicotinamide] | -3.22 | 4.29 | 56.3 | 100 | 100 | 100 | 12.6 | 5.98 | 5.06 | 2.23 | – |
| COc1cc2c(cc1OC)CN(CCCCCCCCCCCCNC(=O)c1cccnc1N)CC2 [Compound 125, 2-Amino-N-(12-(6,7-dimethoxy-3,4-dihydroisoquinolin-2 (1H)-yl)dodecyl)nicotinamide] | -4.48 | 100 | 100 | 100 | 100 | 100 | 42 | 42.6 | 42 | 42.7 | – |
| COC(=O)CN1CCN(CCCCCCCCCCCCC(=O)Nc2nc(N)c3[nH]cnc3n2)CC1 [Compound 7, 12-[4-(2-methoxy-2-oxoethyl)piperazin-1-yl]dodecyl-N-(6-aminopurine-2-yl) carboxamide] | 5.14 | 100 | 100 | 100 | 100 | 100 | 5.17 | 4.16 | 3.48 | 3.17 | – |
